Assay results taken from patent publication US20230250123A1, “GUT MICROBIOTA BIOACTIVATED PDE4 INHIBITOR PRECURSORS” (Giiant Pharma Inc., priority 2020, published 2023).

Tests used:
[1] = In vitro rate of glycoside prodrug hydrolysis in feces supernatant, rat; assay type: in vitro ADME; details: 100 µM, 37° C., pH 6.5, 24 hr
Method: In vitro rate of glycoside prodrugs hydrolysis. The metabolic stability of prodrug candidates to release the parent PDE4 inhibitor could be assessed in vitro according, but not restricted, to the following protocol: feces were collected overnight on a mixture of dry and wet ice in a metabolic cage. Ten volumes (v/w; 30 mL) of 100 mM phosphate buffer (pH 6.5) were added to 3 g of freshly collected rodent feces. The mixture was homogenized with a Stomacher Circulator 400 (2 × 1 min-cycles at 225 rpm). The mixture was transferred to a 50 mL tubes, centrifuged at 10 000xg for 10 min (4° C.) and the supernatant was passed through a 0.45 µm-filter. In a 96 deep-well plate, 198 µL of feces supernatant were aliquoted in 2 wells per compound. Each compound, including positive control, was tested in duplicate. Then 2 µL of 10 mM stock solution of each test compound were spiked in individual wells (duplicate) at a final concentration of 100 µM and samples were sealed and mixed 30 sec at 1000 rpm using a vortexer. Samples were incubated at 37° C. for the desired time in the Thermomixer with constant agitation (300 rpm). At desired time-point, 25 µL of reaction mixture was added to 225 µL of ice-cold quenching solution (acetonitrile + 0.1% (v/v) formic acid) to stop the bacterial enzymatic activity. The quenched incubates were mixed and centrifuged 10 min at 21 000xg at 4° C. A real t0 (no metabolism, 100% total recovery of unchanged prodrug) was generated by adding 22.5 µL of feces supernatant to 225 µL of ice-cold quenching solution (acetonitrile + 0.1% (v/v) formic acid). Then 2.5 µL of 1 mM solution of each test compounds was added, sealed, mixed thoroughly and centrifuged 10 min at 21 000xg at 4° C. All samples, including analytical standards, were analyzed by LC-MS/MS to measure the concentration of the parent PDE4 inhibitor released and the concentration of the corresponding prodrug remaining. A set criteria of 100% recovery is targeted where the summation of the % of prodrug remaining and the % of parent PDE4 inhibitor released should be 100% with an experimental error tolerance of ± 20%. When prodrugs represented by Formula (I) were incubated 24 hours under the conditions described above using mouse, rat and dog feces, the glycoside prodrugs were hydrolyzed to release the corresponding parent PDE4 inhibitor III (Table 3). As a negative control, when compound 4, 10 and 21 were incubated 24 hours under the conditions described above but in the absence of enzyme activities, using mouse feces extract supernatant inactivated by boiling the supernatant 10 minutes, 100% of the prodrugs were recovered unchanged.

[2] = Bidirectional Caco-2 permeability assay; assay type: in vitro ADME; details: human; Caco-2, 10 µM, apical pH 6.0 / basolateral pH 7.4, average of 2 determinations
Method: In vitro glycoside prodrug permeability assessment. The permeability of the glycoside prodrugs were measured using the bidirectional Caco-2 assay. Caco-2 cells were seeded onto permeable polycarbonate supports in 12-well Costar Transwell plates and allowed to grow and differentiate for 21-25 days. On day 24, culture medium (DMEM supplemented with 10% FBS, 1% non-essential amino acids and penicillin/streptomycin) was removed from both sides of the transwell inserts and cells were rinsed with warm HBSS. […] The buffer in the donor chamber (apical side for A-to-B assay, basolateral side for B-to-A assay) was removed and replaced with the working solution (10 µM test article in transport buffer). The plates were then placed at 37° C. under light agitation. At designated time points (30, 60 and 90 min); an aliquot of transport buffer from the receiver chamber was removed and replenished with fresh transport buffer. Samples were quenched with ice-cold CH3CN containing internal standard and then centrifuged to precipitate the protein. Resulting supernatants were further diluted with 50/50 ACN/H2O (H2O only for Atenolol) and submitted for LC/MS/MS analysis. […] Atenolol and propranolol were tested as low and […] permeability references. […] The apparent permeability (Papp, measured in cm/s) of a compound is determined according to the following formula: […]
Where dQ/dt is the net rate of appearance in the receiver compartment, A is the area of the Transwell measured in cm^2 (1.12 cm^2), C0 is the initial concentration of compound added to the donor chamber and 60 is the conversion factor for the minute to second.

SMILES	Prodrug Remaining @ 24 hr (%) [1]	Papp A→B at 10 µM [2]
OC[C@H]1O[C@@H](Oc2ccc(C[C@@H](c3ccc(OC(F)F)c(OC4CC4)c3)c3cnc(C(O)(C(F)(F)F)C(F)(F)F)s3)cn2)[C@H](O)[C@@H](O)[C@@H]1O [Compound 2, (2S,3R,4S,5S,6R)-2-((5-((S)-2-(3-cyclopropoxy-4-(difluoromethoxy)phenyl)-2-(2-(1,1,1,3,3,3-hexafluoro-2-hydroxypropan-2-yl)thiazol-5-yl)ethyl)pyridin-2-yl)oxy)-6-(hydroxymethyl)tetrahydro-2 H-pyran-3,4,5-triol]	0.5%	0.07 ×10⁻⁶ cm/s
CC(=O)OC[C@H]1O[C@@H](Oc2ccc(C[C@H](c3ccc(C(C)(C)O)nc3)c3ccc(OC(F)F)c(OC4CC4)c3)cn2)[C@H](OC(C)=O)[C@@H](OC(C)=O)[C@@H]1OC(C)=O [Compound 3, (2R,3R,4S,5R,6S)-2-(acetoxymethyl)-6-((5-((S)-2-(3-cyclopropoxy-4-(difluoromethoxy)phenyl)-2-(6-(2-hydroxypropan-2-yl)pyridin-3-yl)ethyl)pyridin-2-yl)oxy)tetrahydro-2H-pyran-3,4,5-triyl triacetate]	0.1%	1.4 ×10⁻⁶ cm/s
COC(=O)[C@H]1O[C@@H](Oc2ccc(C[C@@H](c3ccc(OC(F)F)c(OC4CC4)c3)c3cnc(C(O)(C(F)(F)F)C(F)(F)F)s3)cn2)[C@H](OC(C)=O)[C@@H](OC(C)=O)[C@@H]1OC(C)=O [Compound 6, (2S,3R,4S,5S,6S)-2-((5-((S)-2-(3-cyclopropoxy-4-(difluoromethoxy)phenyl)-2-(2-(1,1,1,3,3,3-hexafluoro-2-hydroxypropan-2-yl)thiazol-5-yl)ethyl)pyridin-2-yl)oxy)-6-(methoxycarbonyl)tetrahydro-2H-pyran-3,4,5-triyl triacetate]	23%	
COC(=O)[C@H]1O[C@@H](Oc2ccc(C[C@@H](c3ccc(OC(F)F)c(OC4CC4)c3)c3cnc(C(O)(C(F)(F)F)C(F)(F)F)s3)cn2)[C@H](O)[C@@H](O)[C@@H]1O [Compound 7, (2S,3S,4S,5R,6S)-methyl 6-((5-((S)-2-(3-cyclopropoxy-4-(difluoromethoxy)phenyl)-2-(2-(1,1,1,3,3,3-hexafluoro-2-hydroxypropan-2-yl)thiazol-5-yl)ethyl)pyridin-2-yl)oxy)-3,4,5-trihydroxytetrahydro-2H-pyran-2-carboxylate]	35%	1 ×10⁻⁶ cm/s
COC(=O)[C@H]1O[C@@H](Oc2ccc(C[C@H](c3ccc(C(C)(C)O)nc3)c3ccc(OC(F)F)c(OC4CC4)c3)cn2)[C@H](OC(C)=O)[C@@H](OC(C)=O)[C@@H]1OC(C)=O [Compound 8, (2S,3R,4S,5S,6S)-2-((5-((S)-2-(3-cyclopropoxy-4-(difluoromethoxy)phenyl)-2-(6-(2-hydroxypropan-2-yl)pyridin-3-yl)ethyl)pyridin-2-yl)oxy)-6-(methoxycarbonyl)tetrahydro-2H-pyran-3,4,5-triyl triacetate]		0.6 ×10⁻⁶ cm/s
CC(=O)OC[C@H]1O[C@@H](Oc2ccc(C[C@H](c3ccc(C(C)(C)O)nc3)c3ccc(OC(F)F)c(OC4CC4)c3)cn2)[C@H](OC(C)=O)[C@@H](OC(C)=O)[C@H]1OC(C)=O [Compound 17, (2R,3S,4S,5R,6S)-2-(acetoxymethyl)-6-((5-((S)-2-(3-cyclopropoxy-4-(difluoromethoxy)phenyl)-2-(6-(2-hydroxypropan-2-yl)pyridin-3-yl)ethyl)pyridin-2-yl)oxy)tetrahydro-2H-pyran-3,4,5-triyl triacetate]	0.0%	
CC(=O)OC[C@H]1O[C@H](Oc2ccc(C[C@H](c3ccc(C(C)(C)O)nc3)c3ccc(OC(F)F)c(OC4CC4)c3)cn2)[C@@H](OC(C)=O)[C@@H](OC(C)=O)[C@@H]1OC(C)=O [Compound 19, (2R,3R,4S,5S,6R)-2-(acetoxymethyl)-6-((5-((S)-2-(3-cyclopropoxy-4-(difluoromethoxy)phenyl)-2-(6-(2-hydroxypropan-2-yl)pyridin-3-yl)ethyl)pyridin-2-yl)oxy)tetrahydro-2H-pyran-3,4,5-triyl triacetate]	0.7%	
